# Experimental data taken from patent publication US9795570B2, “Modulation of macrophage phenotype by emodin” (University of South Carolina, priority 2016, dated 2017).
# Key:
# [1] = tested on: T cells co-cultured with TCM treated macrophages; assay: Macrophage - T cell co-culture (activation and proliferation); type: cell-based, mouse
# Protocol: Peritoneal macrophages were seeded into 10 cm plates and treated with EO771 conditioned medium with or without emodin for 24 h. The cells were then washed with PBS and resuspended. T cells were isolated from the spleens of C57BL/6 mice using EasySep T cell isolation kit (Stem Cell Technologies) according to the manufacturer's instructions. For the proliferation assay, T cells were labeled with CSFE and then mixed with macrophages and CD3/CD28 DYNA beads in a 1:1:1 ratio and added to 12 well plates in triplicate. For the activation assay, the T cells were collected after 24 h and stained with anti-CD3, anti-CD4, and anti-CD69 for 30 min at 4° C. The cells were then analyzed on a BD FACS flow cytometer. For the proliferation assay, T cells were collected after 72 h and stained with anti-CD3 and anti-CD4. The cells were analyzed for CSFE depletion on a Beckman Coulter FC500.
# 4T1 tumors = assay: Survival after surgical removal of primary 4T1 tumors; type: in vivo, BALB/c mice; details: 10 mice
# Protocol: A cohort of 30 8-week-old, female BALB/c mice were injected with 2×10^5 4T1 cells suspended in 20 μL PBS in each of their fourth mammary fat pads. The mice were randomly divided into three groups with 10 mice in each group. On day 10, tumors had reached a volume of 100-200 mm^3, and were surgically removed. […] Post-surgical treatment began on day 11. This treatment involved each of the three groups receiving 800 μL daily IP injections of one of the following mixtures: PBS with 2% DMSO by volume (Control group), PBS with 1% DMSO by volume and 1% by volume of 50 mg/mL emodin in DMSO, or PBS with 2% by volume of 50 mg/mL emodin in DMSO. […] Daily IP emodin injections were administered until day 24; from day 25 to day 41, emodin was administered every other day. During the 41 days after the tumor removal, 3 mice in the control group died, while 2 mice and 1 mouse died in low emodin group and high emodin group, respectively (FIG. 16).
# [2] = tested on: mouse peritoneal macrophages; assay: Whole genome microarray, macrophages stimulated with IL4; type: cell-based
# Protocol: Three milliliters of 4% Thioglycolate solution was injected intraperitoneally into 8-12 week old C57BL/6 mice. Three days later, macrophages were collected by lavaging the peritoneal cavity with PBS. The cells were then resuspended in DMEM containing 10% FBS. After 2 h, non-adherent cells were washed away with PBS and the macrophages were cultured overnight in serum free DMEM. The macrophages were then treated with DMEM containing IL4 (10 ng/ml, BioAbChem Inc. Ladson, S.C.) or LPS (100 ng/ml, Sigma-Aldrich) and IFNγ (20 ng/ml, BioAbChem Inc) with or without emodin. Emodin was purchased from Nanjing Langze Medicine and Technology Co. Ltd (Nanjing, China) and dissolved in DMSO at a concentration of 10 mg/ml as a stock solution.
# Microarray analysis was carried out as described previously, with a few alterations. Macrophages were stimulated with IL4 for 6 h or LPS+IFNγ for 24 h with or without emodin (50 μM). Samples were prepared in biological replicates of 4. Cells were lysed with Qiazol and RNA was extracted using Qiagen's miRNeasy kit. Agilent's 2100 Bioanalyzer was used to determine the quality and quantity of the RNA. […] The RNA was amplified and labeled with Agilent's Low Input Quick Amp Labeling Kit (Agilent) according to the manufacturer's instructions. Labeled RNA was then purified using Qiagen's RNeasy Mini Kit (Qiagen, Valencia, Calif.) and dye incorporation and cRNA yield were assessed. Labeled samples were hybridized to Agilent Whole Mouse Genome Microarrays 8×60K (Agilent) using Agilent's Gene Expression Hybridization Kit (Agilent) according to the manufacturer's instructions. Microarray analysis was performed using an Agilent DNA Microarray Scanner System (Cat. # G2565CA).
# For microarray analysis, data was extracted from images with Feature Extractor Software version 10.7.3.1 (Agilent); background correction using detrending algorithms was performed. Subsequently, background-corrected data was uploaded into GeneSpring GX version 11.5.1 for analysis. In this process, data was log 2 transformed, quantile normalized and baseline transformed using the median of all samples. […] Differentially expressed genes were determined by analysis of the data using the Mann-Whitney unpaired statistics. A cutoff p-value of 0.05 and a fold change cutoff value of 2.0 were used to filter the data. Pathway analysis was performed using Ingenuity Pathway Analysis software.
smiles,measurement,setting,value
Cc1cc(O)c2c(c1)C(=O)c1cc(O)cc(O)c1C2=O [emodin],T cell proliferation (CSFE depletion),"[1]; TCM and emodin co-treated macrophages, 72 h",restored T cell proliferation
same,suppression of T cell activation (CD69 on CD4 T cells) by TCM treated macrophages,"[1]; macrophages pre-treated with emodin along with TCM 24 h, co-culture 24 h",completely blocked the suppression
same,mice that died during the 41 days after tumor removal,"4T1 tumors; high emodin dose group, approximately 40 mg/kg IP",1 mouse
same,mice that died during the 41 days after tumor removal,"4T1 tumors; low emodin dose group, approximately 20 mg/kg IP",2 mice
same,fold reduction of IL4 induced expression,"[2]; Arg1, microarray, emodin 50 μM",7.69 fold
same,fold increase of expression under IL4 stimulation,"[2]; CXCL2, microarray",60.6 fold
same,fold increase of expression under IL4 stimulation,"[2]; CXCL10, microarray",15.5 fold
same,fold reduction of IL4 induced expression,"[2]; Ch3I3, microarray, emodin 50 μM",4.24 fold
same,fold reduction of IL4 induced expression,"[2]; IRF4, microarray, emodin 50 μM",97.43 fold
same,fold reduction of IL4 induced expression,"[2]; Mrc1, microarray, emodin 50 μM",2.29 fold
same,fold reduction of IL4 induced expression,"[2]; SOCS1, microarray, emodin 50 μM",22.9 fold
same,fold increase of expression under IL4 stimulation,"[2]; TNFα, microarray",2.7 fold
same,IL4 responsive genes whose induced changes were inhibited,"[2]; emodin 50 μM, IL4 6 h",~60%
same,Em + LPS vs. LPS/IFN (gene expression),"[2]; gene Arg1, microarray, emodin 50 μM",−7.69
same,Em + LPS vs. LPS/IFN (gene expression),"[2]; gene CCL7, microarray, emodin 50 μM",−4.16
same,Em + LPS vs. LPS/IFN (gene expression),"[2]; gene CCL11, microarray, emodin 50 μM",−11.31
same,Em + LPS vs. LPS/IFN (gene expression),"[2]; gene CCL12, microarray, emodin 50 μM",2.30
same,Em + LPS vs. LPS/IFN (gene expression),"[2]; gene CCL28, microarray, emodin 50 μM",2.27
same,Em + LPS vs. LPS/IFN (gene expression),"[2]; gene CDH1, microarray, emodin 50 μM",−5.72
same,Em + LPS vs. LPS/IFN (gene expression),"[2]; gene CDKN1A, microarray, emodin 50 μM",29.78
same,Em + LPS vs. LPS/IFN (gene expression),"[2]; gene CISH, microarray, emodin 50 μM",−7.11
same,Em + LPS vs. LPS/IFN (gene expression),"[2]; gene CXCL2, microarray, emodin 50 μM",60.63
same,Em + LPS vs. LPS/IFN (gene expression),"[2]; gene CXCL10, microarray, emodin 50 μM",15.05
same,Em + LPS vs. LPS/IFN (gene expression),"[2]; gene CXCR1, microarray, emodin 50 μM",12.40
same,Em + LPS vs. LPS/IFN (gene expression),"[2]; gene Ccl2, microarray, emodin 50 μM",−4.26
same,Em + LPS vs. LPS/IFN (gene expression),"[2]; gene Chi3I3, microarray, emodin 50 μM",−4.24
same,Em + LPS vs. LPS/IFN (gene expression),"[2]; gene FCGR2B, microarray, emodin 50 μM",−2.15
same,Em + LPS vs. LPS/IFN (gene expression),"[2]; gene FLT1, microarray, emodin 50 μM",−27.09
same,Em + LPS vs. LPS/IFN (gene expression),"[2]; gene IL1R1, microarray, emodin 50 μM",−2.15
same,Em + LPS vs. LPS/IFN (gene expression),"[2]; gene IL6, microarray, emodin 50 μM",−5.30
same,Em + LPS vs. LPS/IFN (gene expression),"[2]; gene IL19, microarray, emodin 50 μM",−20.01
same,Em + LPS vs. LPS/IFN (gene expression),"[2]; gene IRF4, microarray, emodin 50 μM",−97.43
same,Em + LPS vs. LPS/IFN (gene expression),"[2]; gene IRF5, microarray, emodin 50 μM",−2.58
same,Em + LPS vs. LPS/IFN (gene expression),"[2]; gene ITGB8, microarray, emodin 50 μM",−4.32
same,Em + LPS vs. LPS/IFN (gene expression),"[2]; gene MMP13, microarray, emodin 50 μM",3.68
same,Em + LPS vs. LPS/IFN (gene expression),"[2]; gene Mrc1, microarray, emodin 50 μM",−2.29
same,Em + LPS vs. LPS/IFN (gene expression),"[2]; gene PLA2G5, microarray, emodin 50 μM",4.26
same,Em + LPS vs. LPS/IFN (gene expression),"[2]; gene PTGS2, microarray, emodin 50 μM",2.56
same,Em + LPS vs. LPS/IFN (gene expression),"[2]; gene RBP4, microarray, emodin 50 μM",−15.56
same,Em + LPS vs. LPS/IFN (gene expression),"[2]; gene SOCS1, microarray, emodin 50 μM",−22.90
same,Em + LPS vs. LPS/IFN (gene expression),"[2]; gene SOCS2, microarray, emodin 50 μM",−5.47
same,Em + LPS vs. LPS/IFN (gene expression),"[2]; gene TNF, microarray, emodin 50 μM",2.69
same,expression of CDKN1A (p21),[2]; microarray,increased the expression
same,expression of M2 genes YM1 and Mrc1 in IL4-stimulated cells,[2]; microarray,reducing them
